The values that follow come from patent US10752587B2, “Homobispiperidinyl derivatives as liver X receptor beta agonists, compositions and their use” (Merck Sharp & Dohme Corp., priority 2015, dated 2020).

Experiment [1] has as its target T1, glutathione-S-transferase (GST) tagged LXRbeta LBD (ligand binding domain) (Homo sapiens, UniProt P55055).
T1 construct: purchased Invitrogen pv4658.pps
T1 sequence (P55055 222-460 limits assumed): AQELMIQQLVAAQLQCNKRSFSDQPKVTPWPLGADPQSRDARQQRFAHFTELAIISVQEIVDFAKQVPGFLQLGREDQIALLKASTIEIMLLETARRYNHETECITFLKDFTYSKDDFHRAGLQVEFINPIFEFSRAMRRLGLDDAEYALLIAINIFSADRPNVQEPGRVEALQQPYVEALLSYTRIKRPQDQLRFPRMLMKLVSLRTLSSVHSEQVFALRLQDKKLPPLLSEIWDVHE
Briefly: LanthaScreen TR-FRET Liver X Receptor Coactivator Assay, co-activator recruitment to LXRbeta LBD. Type of experiment: biochemical. As to conditions: for Emax: read-out: LXR beta Activity @ max dose (%); for EC50: potency (Inflection Point, IP), co-activator recruitment to LXRbeta LBD, in relation to T0901317, read-out: LXR beta IP. As for the experimental part: (§1) Potency (Inflection Point, IP) and efficacy (Emax) are evaluated via compound-induced co-activator recruitment to glutathione-S-transferase (GST) tagged LXRbeta and LXRalpha LBD (ligand binding domain) proteins in relation to reference dual agonist compound T0901317 (N-(2,2,2-Trifluoroethyl)-N-[4-[2,2,2-trifluoro-1-hydroxy-1-(trifluoromethyl)ethyl] phenyl] benzenesulfonamide) using the LanthaScreen™ TR-FRET Liver X Receptor Coactivator Assays according to manufacturer's instructions (Invitrogen catalog number pv4658.pps and pv4655). While running the LanthaScreen™ TR-FRET Liver X Receptor Coactivator Assay, LXR alpha-LBD or LXR beta-LBD was added to ligand test compounds followed by addition of a mixture of a fluorescein-labelled coactivator peptide and terbium-conjugated anti-GST antibody. After an incubation period at room temperature, TR-FRET (time-resolved fluorescence resonance energy transfer) was measured using a filter-based instrument capable of TR-FRET, e.g. PerkinElmer Envision.
In general terms: TR-FRET usually uses a lanthanide donor and a delayed reading to cut background.

The target of experiment [2] is T2, glutathione-S-transferase (GST) tagged LXRalpha LBD (ligand binding domain) (Homo sapiens, UniProt Q13133).
T2 construct: purchased Invitrogen pv4655
T2 sequence (Q13133 209-447 limits assumed): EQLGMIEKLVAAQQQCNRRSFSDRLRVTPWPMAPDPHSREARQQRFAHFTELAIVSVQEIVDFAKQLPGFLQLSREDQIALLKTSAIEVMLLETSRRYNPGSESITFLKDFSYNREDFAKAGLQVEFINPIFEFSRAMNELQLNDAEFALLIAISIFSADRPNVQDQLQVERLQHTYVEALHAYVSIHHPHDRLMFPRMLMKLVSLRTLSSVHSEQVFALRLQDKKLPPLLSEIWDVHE
In words: LanthaScreen TR-FRET Liver X Receptor Coactivator Assay, co-activator recruitment to LXRalpha LBD. Format: biochemical. As to conditions: for Emax: read-out: LXR alpha Activity @ max dose (%); for EC50 / LXR alpha IP (nM): potency (Inflection Point, IP), co-activator recruitment to LXRalpha LBD, in relation to T0901317; for EC50: read-out: LXR alpha IP. The protocol: as §1

[3] abbreviates: efficacy at max dose, in relation to reference dual agonist T0901317.

Consider `CN(C)C(=O)c1ccc(N2CCC(OC3CCN(C(=O)C4(c5ccccc5)CCC4)CC3)CC2)cc1Cl` [Example 2-27, 2-chloro-N,N-dimethyl-4-[4-({1-[(1-phenyl-cyclobutyl)carbonyl]piperidin-4-yl}oxy)piperidin-1-yl]benzamide], for which the Emax came out at 82% in experiment [1] (setting [3]) and 19% in experiment [2] (setting [3]). Also, the results for the EC50 in experiment [1] and in experiment [2] were 371 nM and 4620 nM, respectively.

Consider `COc1cccc([C@@](O)(C(=O)N2CCC(OC3CCN(c4ccc(C(=O)N(C)C)c(Cl)c4)CC3)CC2)C(F)(F)F)c1` [Example 2-28, 2-chloro-N,N-dimethyl-4-[4-({1-[(2R)-3,3,3-trifluoro-2-hydroxy-2-(3-methoxyphenyl)propanoyl]piperidin-4-yl}oxy)piperidin-1-yl]benzamide], for which the Emax in experiment [1] (setting [3]) came to 87%; in experiment [2] (setting [3]) it was 28%. Also, the EC50 stood at 25 nM in experiment [1] and 1740 nM in experiment [2].

Regarding `CN(C)C(=O)c1ccc(N2CCC(OC3CCN(C(=O)C(F)(F)F)CC3)CC2)cc1Cl` [Example 2-29, 2-chloro-N,N-dimethyl-4-(4-{[1-(trifluoro-acetyl)piperidin-4-yl]oxy}piperidin-1-yl)benzamide], the Emax in experiment [1] (setting [3]) turned out to be 65%; in experiment [2] (setting [3]), 25%. Further, in experiment [1], the EC50 stood at 3790 nM. The “LXR alpha IP (nM)” value in experiment [2] is recorded as “NO IP”.

As to `CN(C)C(=O)c1ccc(N2CCC(CC3CCN(C(=O)C(O)(c4ccsc4)C(F)(F)F)CC3)CC2)cc1Cl` (stereo not drawn) [Example 2-30, 2-chloro-N,N-dimethyl-4-(4-{[1-(3,3,3-trifluoro-2-hydroxy-2-thiophen-3-ylpropanoyl)piperidin-4-yl]methyl}piperidin-1-yl)benzamide], the results for the Emax in experiment [1] (setting [3]) and in experiment [2] (setting [3]) were 64% and 25%, respectively. The EC50 came to 36 nM in experiment [1] and 821 nM in experiment [2].

For `CC(C)C(O)(C(=O)N1CCC(CC2CCN(c3ccc(C(=O)N(C)C)c(Cl)c3)CC2)CC1)C(F)(F)F` (stereo not drawn) [Example 2-31, 2-chloro-4-[4-({1-[2-hydroxy-3-methyl-2-(trifluoro-methyl)butanoyl]piperidin-4-yl}methyl)piperidin-1-yl]-N,N-dimethyl-benzamide], the Emax was found to be 74% in experiment [1] (setting [3]) and 24% in experiment [2] (setting [3]). The EC50 in experiment [1] stood at 784 nM; in experiment [2] it was 4450 nM.

As to `CCC(O)(C(=O)N1CCC(CC2CCN(c3ccc(C(=O)N(C)C)c(Cl)c3)CC2)CC1)c1ccccc1` (stereo not drawn) [Example 2-32, 2-chloro-4-(4-{[1-(2-hydroxy-2-phenyl-butanoyl)piperidin-4-yl]methyl}piperidin-1-yl)-N,N-dimethyl-benzamide], the Emax in experiment [1] (setting [3]) came to 55%; in experiment [2] (setting [3]), 19%. The EC50 stood at 72 nM in experiment [1] and 1420 nM in experiment [2].

With `CN(C)C(=O)c1ccc(N2CCC(CC3CCN(C(=O)[C@@](O)(c4cccc(C(F)(F)F)c4)C(F)(F)F)CC3)CC2)cc1Cl` [Example 2-33, 2-chloro-N,N-dimethyl-4-{4-[(1-{(2S)-3,3,3-trifluoro-2-hydroxy-2-[3-(trifluoromethyl)phenyl]propanoyl}piperidin-4-yl)methyl]piperidin-1-yl}benzamide], the Emax is 75% in experiment [1] (setting [3]) and 5% in experiment [2] (setting [3]). Moreover, the EC50 in experiment [1] was 722 nM. Further, the “LXR alpha IP (nM)” value in experiment [2] is given as “NO IP”.

Consider `COc1cccc([C@@](O)(C(=O)N2CCC(CC3CCN(c4ccc(C(=O)N(C)C)c(Cl)c4)CC3)CC2)C(F)(F)F)c1` [Example 2-35, 2-chloro-N,N-dimethyl-4-[4-({1-[(2R)-3,3,3-trifluoro-2-hydroxy-2-(3-methoxyphenyl)propanoyl]piperidin-4-yl}methyl)piperidin-1-yl]benzamide], for which the Emax in experiment [1] (setting [3]) was determined as 44%; in experiment [2] (setting [3]) it was 6%. Besides, the EC50 in experiment [1] turned out to be 8 nM. Moreover, the “LXR alpha IP (nM)” value in experiment [2] was “NO IP”.

Turning to `CN(C)C(=O)c1ccc(N2CCC(CC3CCN(C(=O)C(O)(Cc4ccccc4)C(F)(F)F)CC3)CC2)cc1Cl` (stereo not drawn) [Example 2-36, 4-(4-{[1-(2-benzyl-3,3,3-trifluoro-2-hydroxy-propanoyl)piperidin-4-yl]methyl}piperidin-1-yl)-2-chloro-N,N-dimethyl-benzamide], the Emax was determined as 126% in experiment [1] (setting [3]) and 43% in experiment [2] (setting [3]). For the same compound, the figures for the EC50 in experiment [1] and in experiment [2] were 110 nM and 1060 nM, respectively.

Take `CN(C)C(=O)c1ccc(N2CCC(CC3CCN(C(=O)C(O)(c4cccs4)C(F)(F)F)CC3)CC2)cc1Cl` (stereo not drawn) [Example 2-37, 2-chloro-N,N-dimethyl-4-(4-{[1-(3,3,3-trifluoro-2-hydroxy-2-thiophen-2-ylpropanoyl)piperidin-4-yl]methyl}piperidin-1-yl)benzamide]: the Emax in experiment [1] (setting [3]) amounted to 73%; in experiment [2] (setting [3]), 33%. In addition, the EC50 in experiment [1] came to 29 nM; in experiment [2], 620 nM.

As to `Cc1ccsc1C(O)(C(=O)N1CCC(CC2CCN(c3ccc(C(=O)N(C)C)c(Cl)c3)CC2)CC1)C(F)(F)F` (stereo not drawn) [Example 2-38, 2-chloro-N,N-dimethyl-4-[4-({1-[3,3,3-trifluoro-2-hydroxy-2-(3-methyl-thiophen-2-yl)propanoyl]piperidin-4-yl}methyl)piperidin-1-yl]benzamide], the Emax in experiment [1] (setting [3]) was determined as 67%; in experiment [2] (setting [3]), 15%. For the same compound, the values for the EC50 in experiment [1] and in experiment [2] were 49 nM and 575 nM, respectively.

`CCc1cccc(C(O)(C(=O)N2CCC(CC3CCN(c4ccc(C(=O)N(C)C)c(Cl)c4)CC3)CC2)C(F)(F)F)c1` (stereo not drawn) [Example 2-39, 2-chloro-4-[4-({1-[2-(3-ethylphenyl)-3,3,3-trifluoro-2-hydroxy-propanoyl]piperidin-4-yl}methyl)piperidin-1-yl]-N,N-dimethyl-benzamide]: the Emax in experiment [1] (setting [3]) was determined as 30%; in experiment [2] (setting [3]), 2%. Besides, the EC50 in experiment [1] turned out to be 36 nM; in experiment [2] it was 1780 nM.

In the case of `CN(C)C(=O)c1ccc(N2CCC(CC3CCN(C(=O)C(O)(c4ccnc(C(F)(F)F)c4)C(F)(F)F)CC3)CC2)cc1Cl` (stereo not drawn) [Example 2-40, 2-chloro-N,N-dimethyl-4-{4-[(1-{3,3,3-trifluoro-2-hydroxy-2-[2-(trifluoromethyl)pyridin-4-yl]propanoyl}piperidin-4-yl)methyl]piperidin-1-yl}benzamide], the Emax stood at 34% in experiment [1] (setting [3]) and 9% in experiment [2] (setting [3]). For the same compound, in experiment [1], the EC50 came to 72 nM. Moreover, in experiment [2], the “LXR alpha IP (nM)” value was “NO IP”.

As for `COc1cccc(C(O)(C(=O)N2CCC(CC3CCN(c4ccc(C(=O)N(C)C)c(Cl)c4)CC3)CC2)C(F)(F)F)c1F` (stereo not drawn) [Example 2-41, 2-chloro-N,N-dimethyl-4-[4-({1-[3,3,3-trifluoro-2-(2-fluoro-3-methoxyphenyl)-2-hydroxy-propanoyl]piperidin-4-yl}methyl)piperidin-1-yl]benzamide], the results for the Emax in experiment [1] (setting [3]) and in experiment [2] (setting [3]) were 63% and 10%, respectively. The EC50 in experiment [1] was determined as 14 nM. In experiment [2], the “LXR alpha IP (nM)” value is on record as “NO IP”.

Consider `Cc1cc(F)cc(C(O)(C(=O)N2CCC(CC3CCN(c4ccc(C(=O)N(C)C)c(Cl)c4)CC3)CC2)C(F)(F)F)c1` (stereo not drawn) [Example 2-42, 2-chloro-N,N-dimethyl-4-[4-({1-[3,3,3-trifluoro-2-(3-fluoro-5-methylphenyl)-2-hydroxy-propanoyl]piperidin-4-yl}methyl)piperidin-1-yl]benzamide], for which the Emax came to 76% in experiment [1] (setting [3]) and 25% in experiment [2] (setting [3]). Further, the EC50 came out at 12 nM in experiment [1] and 162 nM in experiment [2].

Regarding `CN(C)C(=O)c1ccc(N2CCC(CC3CCN(C(=O)[C@](O)(c4ccccc4)C(F)(F)F)CC3)CC2)cc1Cl` [Example 2-43, 2-chloro-N,N-dimethyl-4-[4-({1-[(2R)-3,3,3-trifluoro-2-hydroxy-2-phenyl-propanoyl]piperidin-4-yl}methyl)piperidin-1-yl]benzamide], the “LXR beta Activity @ max dose (%)” value in experiment [1] (setting [3]) stood at 75%. In addition, the “LXR alpha Activity @ max dose (%)” value in experiment [2] (setting [3]) is reported as 16%.

Regarding `CN(C)C(=O)c1ccc(N2CCC(CC3(C)CCN(C(=O)[C@](O)(c4ccccc4)C(F)(F)F)CC3)CC2)cc1Cl` [Example 2-44, 2-chloro-N,N-dimethyl-4-[4-({4-methyl-1-[(2R)-3,3,3-trifluoro-2-hydroxy-2-phenyl-propanoyl]piperidin-4-yl}methyl)piperidin-1-yl]benzamide], the figures for the Emax in experiment [1] (setting [3]) and in experiment [2] (setting [3]) were 37% and 20%, respectively. The EC50 was found to be 1 nM in experiment [1] and 32 nM in experiment [2].
